Measured values reported in patent EP2229935A1, “Peptide derivatives or pharmaceutically acceptable salts thereof, method for producing the same, use of said derivatives and pharmaceutical composition” (Nebolsin, Vladimir Evgenievich, priority 1997, dated 1999).
Marks after values point to notes of the source that are not given here.

How the values were obtained:
Salmonella spp. = experiment: Resistance of mice to Salmonella spp. infection; type: in vivo; conditions: test compounds 500 µg/kg orally; for MLT: mean lifetime
Protocol: Effect of the compounds of general formula (I) on change in average lifetime of experimental animals infected with Salmonella spp.
Experiments were carried out on mongrel white mice of both sexes weighing 18-22 g. Compounds III, XLIV and the reference drug sodium nucleinate were administered orally for 3 days (a total of 6 times) prior and post infection (dosage regimen -3, -2, -1, 0, 1, 2, 3, where 0 is infection day). A 24-hour Salmonella spp. culture grown on Hottinger agar, was used for infecting. Normal saline solution was used to prepare cellular suspension. Suspension of Salmonella spp. cells was administered subcutaneously at a dose 5 x 10^8 cells per a mouse in 0.5 ml.

Male guinea pigs = experiment: Antigen-induced bronchospasm in actively sensitized guinea pigs; type: in vivo; conditions: sensitized guinea pigs
Protocol: Antiasthmatic effect of the test compounds was studied using an antigen-induced bronchospasm model in actively sensitized guinea pigs according to the Andersson method [Andersson P. Antigen induced bronchial anaphylaxis in actively sensitized guinea pig. Allergy (1980), Vol. 35, pp. 65-71].
Male guinea pigs were sensitized with intramuscular injection of 0.5 ml suspension comprising 20 micrograms ovalbumin (OVA, manufactured by the Sigma company [grade III]) and 100 mg Al(OH)3 per one animal. Anaphylaxis-provoking dose 150-200 µg/kg OVA in 0.1 ml normal saline was intravenously (v. jugularis) injected on day 26 after sensibilization. Bronchospasm induction and measuring external respiration parameters were carried out according to the method described in Yu-Hong L., Barnes P., Rogers D. Inhibition of neurogenic plasma exudation and bronchoconstriction by a K+ channel activator, BRL 38227, in guinea pig airways in vivo. Europ. J. Pharmacol. (?), Vol. 239, pp.257-259]. Measurement of respiration parameters was performed using a transducer (Ugo Basel, model 7020), connected with a cannula and a recorder (Millichrome), recording breathing amplitude. […] Efficacy of compounds was determined by change in bronchospasm value.
Inthal was used as a reference drug that was administered to animals at a dose 5 µg/kg according to the same dosage regimen as the test substances were administered. The control group of animals received equivalent amount of normal saline.
Groups of animals: group 1 - control; group 2 - animals given Inthal; group 3 - animals given oral compound XLIV; group IV - animals given oral compound III; group 5 - animals given intratracheal compound III; group 6 - animals given compound XLIX, group 7 - animals given compound XXXI, group 8 - animals given compound XLVI; group 9 - animals given compound VI, group 10 - animals given compound XLVIII.

[1] = test system: hepatic P-450 cytochrome system; experiment: Hexenal sleep duration in guinea pigs; type: in vivo; conditions: oral 3 days, 50 µg/kg, control 24.76 ± 3.23
Protocol: Change in Hexenal sleep (HS) duration is the in vivo measurable index of hepatic P-450 cytochrome system condition.
Studies were carried out on male mice of the lines BALB/c*h75, C57B1/6, CBA, DBA/2, first generation CBF1 and BDF1 hybrides, with initial mass 18-20 g, each group including 10 mice; and on mongrel male guinea pigs with initial mass 250-300 g, each group including 24 animals. All the test compounds (from II to LII) were administered orally in drinking water and for three days at doses 50 and 500 µg/kg. Hexenal hydrochloride at a dose […] of animal mass was administered 24 hours after the last drug administration, except for line BALB/c*h75 mice, which were administered Hexenal at a dose 60 µg/kg at the same terms, and guinea pigs for which Hexenal dose was 30 µg/kg. HS duration was determined in minutes.

Human lymphocytes = experiment: PHA-induced blasttransformation of lymphocytes; type: cell-based
Protocol: Human lymphocytes were used for blasttransformation reaction [Kiseleva E.P., Tsveibakh A.S., Goldman E.I., Pigareva N.V. Application of a micromethod to study blasttransformation of lymphocytes in humans and animals. Immunology (1985), No 1, pp. 76-78]. 10 ml blood were collected into a sterile syringe containing heparine (to final concentration 25 U/ml) and incubated to sediment red blood cells (60-90 minutes at 37°C). Leukocytic suspension layer was selected and the number of nucleated cells was calculated. The cells obtained in such a way were incubated for 72 hours in a humid atmosphere with 5% CO2 at 37°C in the cells of plates for immune reactions in RPMI-1640 medium comprising 15% fetal calf serum, […] Neomycine (incubation mixture volume 0.15 ml). 5 x 10^5 cells were introduced into each plate cell. Incubation was carried out in the presence or absence of mitogen phytohemagglutinin (PHA) (Sigma) […] or concanavalin A (ConA) (Sigma) […] with or without addition of the test compounds at different concentrations. […] H^3 -thymidine in RPMI-1640 medium were introduced into each cell 16 hours before incubation termination. Following culturing period termination, 0.15 ml cellular suspension from each plate cell were transferred on the FN-8 paper filters. Filters were dried, washed two times with normal saline for 5 minutes then twice with TCA for 60 minutes. After drying, radioactivity of samples was calculated on a counter in the ZhS-8 scintillator. Stimulation index was calculated as ratio of sample radioactivity with mitogen to sample radioactivity without mitogen.

[2] = Day 1 following infection, regimen -3..3
[3] = 50 µg/kg per os, 72, 48 and 18 hours prior to bronchospasm induction

Molecule: O=C(O)CCCC(=O)NCCc1c[nH]cn1 [compound III, N-GLUTARYLHISTAMINE]
- Number of dead mice (Salmonella spp.; [2]): 1
- Number of dead mice (Salmonella spp.; Day 2 following infection): 1*^1
- Number of dead mice (Salmonella spp.; Day 3 following infection): 1
- Number of dead mice (Salmonella spp.; Day 4 following infection): 2
- Number of dead mice (Salmonella spp.; Day 5 following infection): 1
- Number of dead mice (Salmonella spp.; Day 6 following infection): 2
- Number of dead mice (Salmonella spp.; Day 7 following infection): 2
- MLT (Salmonella spp.): 4.5 ± 0.65 days
- Bronchospasm (percent of the maximum value) (Male guinea pigs; 50 µg/kg intratracheally, 15 minutes prior to bronchospasm induction): 24.6 6.4* percent of the maximum value
- Bronchospasm (percent of the maximum value) (Male guinea pigs; [3]): 12.0 4.0** percent of the maximum value

Molecule: γ-L-glutamylhistamine [compound XLIV]
- Number of dead mice (Salmonella spp.; [2]): 3*^2
- Number of dead mice (Salmonella spp.; Day 3 following infection): 1
- Number of dead mice (Salmonella spp.; Day 5 following infection): 5
- Number of dead mice (Salmonella spp.; Day 6 following infection): 2
- Number of dead mice (Salmonella spp.; Day 7 following infection): 1
- MLT (Salmonella spp.): 4.0 ± 0.73 days
- Hexenal sleep duration (minutes) [1]: 13.48 ± 1.02* minutes
- Bronchospasm (percent of the maximum value) (Male guinea pigs; [3]): 15.6 3.2** percent of the maximum value
- blasttranformation reaction of human lymphocytes induced by PHA (Human lymphocytes): stimulating effect
- Radioactivity, number of pulses for 20 seconds (Human lymphocytes; 10^-4 M/l, +PHA): 3276 ± 225 number of pulses for 20 seconds
- Stimulation index (Human lymphocytes; 10^-4 M/l, +PHA): 10.9
- Radioactivity, number of pulses for 20 seconds (Human lymphocytes; 10^-4 M/l, no mitogen): 301 ± 103 number of pulses for 20 seconds
- Radioactivity, number of pulses for 20 seconds (Human lymphocytes; 10^-5 M/l, +PHA): 2999 ± 213 number of pulses for 20 seconds
- Stimulation index (Human lymphocytes; 10^-5 M/l, +PHA): 23.2
- Radioactivity, number of pulses for 20 seconds (Human lymphocytes; 10^-5 M/l, no mitogen): 132 ± 13 number of pulses for 20 seconds
- Radioactivity, number of pulses for 20 seconds (Human lymphocytes; 10^-6 M/l, +PHA): 4414 ± 570 number of pulses for 20 seconds
- Stimulation index (Human lymphocytes; 10^-6 M/l, +PHA): 29.6
- Radioactivity, number of pulses for 20 seconds (Human lymphocytes; 10^-6 M/l, no mitogen): 150 ± 33 number of pulses for 20 seconds
- Radioactivity, number of pulses for 20 seconds (Human lymphocytes; 10^-7 M/l, +PHA): 2960 ± 210 number of pulses for 20 seconds
- Stimulation index (Human lymphocytes; 10^-7 M/l, +PHA): 9.9
- Radioactivity, number of pulses for 20 seconds (Human lymphocytes; 10^-7 M/l, no mitogen): 300 ± 107 number of pulses for 20 seconds
- Radioactivity, number of pulses for 20 seconds (Human lymphocytes; 10^-8 M/l, +PHA): 3830 ± 286 number of pulses for 20 seconds
- Stimulation index (Human lymphocytes; 10^-8 M/l, +PHA): 14.7
- Radioactivity, number of pulses for 20 seconds (Human lymphocytes; 10^-8 M/l, no mitogen): 261 ± 100 number of pulses for 20 seconds
